Measurements: PubChem BioAssay AID1996
≈ marks a conversion by molar mass, not a printed value.

Details: buffer; pH 7.4; 200.0 µM

Row | SMILES | solubility kinetic
1 | Cl.Clc1ccc2[nH]c3c(c2c1)CCNC3 | 32.4 µg/mL
2 | Cc1ccc(F)c(NC(=O)c2cncn2-c2ccccc2)c1 | 41.2 µg/mL (≈ 140 µM)
3 | Brc1ccc(CN2CCCCCC2)cc1 | 12.5 µg/mL (≈ 46.6 µM)
4 | CC(C)(C)OC(=O)NC1CC2CCCC(C1)N2Cc1ccccc1 (configuration not stated) | > 49.6 µg/mL
5 | O=[N+]([O-])c1ccc(N2CCCCC2)nc1N1CCCCC1 | 5.3 µg/mL (≈ 18.3 µM)
6 | CC1(c2ccccc2)NC(=O)N(CC(=O)N(c2ccccc2)C2CCS(=O)(=O)C2)C1=O (configuration not stated) | 60.3 µg/mL (≈ 137 µM)
7 | Cc1ccc2nc(-c3ccncc3)cc(C(=O)N3CCOCC3)c2c1 | > 50 µg/mL
8 | O=C(Nc1cccc(Cl)c1)c1cncn1-c1ccc(F)cc1 | 45.4 µg/mL (≈ 144 µM)
9 | COc1cc(C(=O)OCC(=O)NCCCc2ccccc2)ccc1OCC(C)C | 1.2 µg/mL (≈ 3 µM)
10 | Oc1ccccc1-c1nc(NCc2cccnc2)c2ccccc2n1 | < 0.2 µg/mL
11 | Brc1ccccc1OCCN1CCCC1 | 32 µg/mL (≈ 118 µM)
12 | CC1CC(C)CN(C(=O)c2ccc3c(c2)OCCO3)C1 (configuration not stated) | > 41.3 µg/mL
13 | CCOC(=O)CSc1nc2c(c(=O)[nH]1)C(C)(CC)Cc1ccccc1-2 (configuration not stated) | 1.5 µg/mL (≈ 4.18 µM)
14 | Cc1ccc(S(=O)(=O)NC2CCCCCC2)cc1 | > 40.1 µg/mL
15 | O=C(NCCCCc1ccccc1)c1ccc(F)cc1 | 1.4 µg/mL (≈ 5.16 µM)
16 | O=C(N1CCCCC1)N1CCN(S(=O)(=O)c2ccccc2)CC1 | > 50.6 µg/mL
17 | Cc1cc(=O)[nH]c2ccc(S(=O)(=O)Nc3ccccc3)cc12 | 3.4 µg/mL (≈ 10.8 µM)
18 | CN1CCN(/N=C/c2c[nH]c3ccccc23)CC1 | > 36.3 µg/mL
19 | CN1CC2([N+](=O)[O-])CC=C(Cl)C([N+](=O)[O-])(C1)C2 (configuration not stated) | > 39.3 µg/mL
20 | COC(=O)c1c(C)[nH]c(C=Nc2ccc(OC)cc2)c1C | 30 µg/mL (≈ 105 µM)
21 | Cc1ccc(C(=O)OCC(=O)N2CCCCCC2)c(O)c1 | 14 µg/mL (≈ 48.1 µM)
22 | CCN(C(=O)CSc1cccc[n+]1[O-])c1ccccc1 | > 43.3 µg/mL
23 | Cc1cc(N2CCOCC2)nc2ccc(NC(=S)NC(C)C)cc12 | 4.6 µg/mL (≈ 13.4 µM)
24 | CCOc1ccc(C2=CSC3=NCCN23)cc1[N+](=O)[O-] | 36.2 µg/mL (≈ 124 µM)
25 | CSc1ccc(/C=C2\NC(=O)NC2=O)cc1 | 9.8 µg/mL (≈ 41.8 µM)

Row | SMILES | solubility kinetic
26 | Cc1ccc2c(c1)/C(=C/c1ccccc1)C(=O)N2 | 2.3 µg/mL (≈ 9.78 µM)
27 | CCN1CCN(C(=O)NC2CCCCC2)CC1.O=C(O)C(=O)O | > 49.4 µg/mL
28 | COc1cc(C(=O)OCC(C)=O)cc(NC(=O)c2ccco2)c1OC | 2.4 µg/mL (≈ 6.91 µM)
29 | COC(=O)/C(C#N)=C\c1c(OC)[nH]c2ccccc12 | 1.1 µg/mL (≈ 4.29 µM)
30 | CC(C)NC(=O)C(=O)c1cn(C)c2ccccc12 | 33.3 µg/mL (≈ 136 µM)
31 | O=S(=O)(c1ccccc1)c1cnc(-c2ccccc2)nc1N1CCCC1 | < 0.3 µg/mL
32 | NC(=O)c1ccc(NC(=O)Nc2ccc3c(c2)OCO3)cc1 | 3.8 µg/mL (≈ 12.7 µM)
33 | CCCCCCNC(=O)Cc1ccc(Br)cc1 | 5 µg/mL (≈ 16.8 µM)
34 | CC[C@H](C)[C@H](NC(N)=O)C(=O)Nc1ccc(NC(C)=O)cc1 | > 46 µg/mL
35 | O=C(Nc1nc2cc3c(cc2s1)OCO3)c1ccc(N2C(=O)CCC2=O)cc1 | 1.1 µg/mL (≈ 2.78 µM)
36 | COc1ccccc1-n1cnc2sc(C)c(C)c2c1=O | 15.1 µg/mL (≈ 52.7 µM)
37 | O=C(COC(=O)c1ccccc1Br)NC1CCCC1 | > 48.9 µg/mL
38 | COc1ccc2c(CC(=O)NNC(=O)c3ccc(O)cc3)coc2c1 | > 51.1 µg/mL
39 | Cc1ccsc1C(=O)NCCc1ccco1 | 33.5 µg/mL (≈ 142 µM)
40 | CCNc1nc(NCC)nc(N(C#N)C(C)C)n1 | > 37.4 µg/mL
41 | CC1CCC(C(C)C)C(=O)/C1=C/c1ccc(N)cc1 (configuration not stated) | 3.3 µg/mL (≈ 12.8 µM)
42 | CCOC(=O)C1=C(N)Oc2cc(O)ccc2C1c1ccc(C)cc1 (configuration not stated) | < 0.7 µg/mL
43 | CCN(CC)C(=O)c1cc2c(=O)n3cccc(C)c3nc2s1 | 43.4 µg/mL (≈ 138 µM)
44 | CC(=O)Nc1nnc(S(N)(=O)=O)s1 | > 33.3 µg/mL
45 | O=C1C2C3C=CC(CC3)C2C(=O)N1c1ccc(Cl)cc1 (configuration not stated) | < 0.6 µg/mL
46 | c1ccc(CCc2ccncc2)cc1 | 13 µg/mL (≈ 70.9 µM)
47 | O=C1Nc2ccccc2C1c1ncc(C(F)(F)F)cc1Cl (configuration not stated) | > 46.9 µg/mL
48 | O=C(Nc1ccc2c(c1)CCC2)Nc1ccc(F)cc1F | < 0.3 µg/mL
49 | O=c1c2ccccc2[nH]c2ccc(O)cc12 | > 31.7 µg/mL
50 | CN(C)c1cccc(C(=O)OCC(=O)NC(=O)NCc2ccccc2)c1 | 2.6 µg/mL (≈ 7.32 µM)

Row | SMILES | solubility kinetic
51 | CCCN1C(=O)c2ccccc2NC1c1ccc(Cl)cc1 (configuration not stated) | 3.2 µg/mL (≈ 10.6 µM)
52 | O=C(Oc1ccc(F)cc1)c1cccnc1 | 26.7 µg/mL (≈ 123 µM)
53 | Cc1cc(NC(=O)CCc2ccc(-c3ccccc3)o2)no1 | 2.4 µg/mL (≈ 8.1 µM)
54 | CCN(C(=O)/C=C/c1ccc(OC)cc1)C1CCCCC1 | 38.3 µg/mL (≈ 133 µM)
55 | Cc1ccc(NC(=O)N2CCc3ccccc3C2)cc1C | 0.9 µg/mL (≈ 3.21 µM)
56 | Cc1cc(=O)oc2cc(OCC(=O)Nc3ccccc3C(=O)O)ccc12 | 52.9 µg/mL (≈ 150 µM)
57 | O=C(Cc1ccc(Br)cc1)NCCCn1ccnc1 | > 48.3 µg/mL
58 | COc1ccc(CNc2ccc(N3CCOCC3)cc2)cc1 | 40.9 µg/mL (≈ 137 µM)
59 | Cc1cc(NC(=O)CSc2nnc(C)o2)no1 | > 38.1 µg/mL
60 | CCCN(CCC)C(=S)NC1CC2C=CC1C2 (configuration not stated) | > 37.9 µg/mL
61 | COc1ccc(C(=O)NC(C)CCc2ccccc2)cc1[N+](=O)[O-] (configuration not stated) | 20.5 µg/mL (≈ 62.4 µM)
62 | Cc1cc(NC(=O)NCC(F)(F)F)no1 | > 33.5 µg/mL
63 | CC1(C)COC2(OC1)C(=O)Nc1ccccc12 | > 35 µg/mL
64 | CCN1CCc2c(C#N)c(NCc3ccccc3)nc(NCCO)c2C1 | 6.3 µg/mL (≈ 17.9 µM)
65 | Cc1cccc(C)c1NC(=O)CNC(=O)Cc1ccccc1[N+](=O)[O-] | 18.2 µg/mL (≈ 53.3 µM)
66 | CN(Cc1cccc(Cl)c1Cl)C(=O)c1cc(S(=O)(=O)N2CCOCC2)ccc1F | 5.2 µg/mL (≈ 11.3 µM)
67 | Cc1ccc(C)c(NC(=O)C2CCCN(c3cnccn3)C2)c1 (configuration not stated) | 1.7 µg/mL (≈ 5.48 µM)
68 | CCC(Oc1ccccc1F)C(=O)NCCN1CCOCC1 (configuration not stated) | 44.3 µg/mL (≈ 143 µM)
69 | CNC(=O)c1ccccc1Sc1ccccc1CO | 40.3 µg/mL (≈ 147 µM)
70 | O=C1OC(CCl)CN1Cc1c(Cl)cccc1Cl (configuration not stated) | 41.9 µg/mL (≈ 142 µM)
71 | O=C1CC(C(=O)N2CCCc3ccccc32)CN1c1ccc(F)cc1 (configuration not stated) | 46.5 µg/mL (≈ 137 µM)
72 | CCOC(=O)c1c(C)[nH]c(C)c1C(=O)COC(=O)/C=C/c1ccco1 | > 51.8 µg/mL
73 | Cc1nn(-c2ccc(C(=O)O)cc2)c2c1C(=O)CC(C)(C)C2 | > 44.8 µg/mL
74 | CC(C)Cc1cc(C(=O)Nc2ccc(Br)cc2)no1 | < 0.3 µg/mL
75 | CCOc1ccc(NC(=O)NCc2ccc3c(c2)OCO3)cc1 | 1.8 µg/mL (≈ 5.73 µM)

Row | SMILES | solubility kinetic
76 | Fc1cccc(CN2CCN(c3ccc(Cl)cc3)CC2)c1 | 4.1 µg/mL (≈ 13.5 µM)
77 | O=C(Nc1ccc(N2CCCC2)cc1)c1cccc(Cl)c1 | < 0.3 µg/mL
78 | NC(=O)/C=C/C(=O)Nc1ccc(Cl)cc1 | > 33.7 µg/mL
79 | CCn1c(C)nc2cc(C(=O)OC)ccc21 | > 32.7 µg/mL
80 | CC(C)c1ccccc1NC(=S)N(C)C | > 33.4 µg/mL
81 | O=C(Nc1cccc2c1CCCC2)c1ccccc1Br | < 0.7 µg/mL
82 | Fc1cc2[nH]cnc2cc1Cl | > 25.6 µg/mL
83 | O=C(N[C@@H](Cc1ccccc1)C(=O)OCc1ccccc1)c1ccco1 | 32.4 µg/mL (≈ 92.7 µM)
84 | O=C(NCC(=O)N1CCCC1)c1ccc(Br)cc1 | > 46.7 µg/mL
85 | O=[N+]([O-])c1cccc(-c2nnc(SCc3cccnc3)o2)c1 | > 47.1 µg/mL
86 | O=C(c1ccc(F)cc1)N1CCC(c2ccccc2)C1 (configuration not stated) | 39.8 µg/mL (≈ 148 µM)
87 | Cc1cccc(C(=O)Nc2cccc3cccnc23)c1 | 2.6 µg/mL (≈ 9.91 µM)
88 | CN(C(=O)CSc1nc2ccccc2c(=O)n1-c1ccccc1F)C1CCS(=O)(=O)C1 (configuration not stated) | 16.2 µg/mL (≈ 35.1 µM)
89 | COc1ccc(C2(C)NC(=O)N(CC(=O)NC3(C#N)CCCCC3)C2=O)cc1 (configuration not stated) | > 57.7 µg/mL
90 | CC(C)(C)NC(=O)C(OC(=O)c1cccs1)c1ccccc1 (configuration not stated) | 3.3 µg/mL (≈ 10.4 µM)
91 | Cc1ccc(C(=O)NCCCNC(=O)Cc2ccccc2)cn1 | > 46.7 µg/mL
92 | Cc1ccc(C)c(NC(=O)COC(=O)Cc2ccsc2)c1 | 42.5 µg/mL (≈ 140 µM)
93 | CCOc1ccc(S(=O)(=O)NCCCn2ccnc2)cc1 | 45.4 µg/mL (≈ 147 µM)
94 | N#C/C(=C(/O)c1ccc(C(=O)c2ccccc2)cc1)c1nc2ccccc2[nH]1 | < 0.3 µg/mL
95 | CCn1ncc(-c2csc(N)n2)c1C | > 31.2 µg/mL
96 | COc1ccc(-c2csc(-c3[nH]cnc3N)n2)cc1 | 18.1 µg/mL (≈ 66.5 µM)
97 | COc1ccc(OC)c(S(=O)(=O)N2CCN3CCCC3C2)c1 (configuration not stated) | > 49 µg/mL
98 | Cn1c(SCc2ccccc2Br)nc2ccccc2c1=O | 0.4 µg/mL (≈ 1.11 µM)
99 | CCCC(=O)Nc1cc(C(F)(F)F)ccc1N1CCOCC1 | 44.6 µg/mL (≈ 141 µM)
100 | COC(=O)c1[nH]c2ccccc2c1NC(=O)c1c(F)cccc1F | 1.1 µg/mL (≈ 3.33 µM)

Row | SMILES | solubility kinetic
101 | O=C(N/N=C/C1CC2CCC1C2)C1CC1 (configuration not stated) | > 30.9 µg/mL
102 | COc1ccc(C(=O)OCC(=O)N2CCN(C(=O)c3ccco3)CC2)cc1OC | > 60.4 µg/mL
103 | Cc1nc(SCc2ccc(O)c([N+](=O)[O-])c2)c([N+](=O)[O-])[nH]1 | > 46.5 µg/mL
104 | Cc1cc(C(=O)NCc2csc(-c3ccccc3)n2)no1 | > 44.9 µg/mL
105 | Cc1ccc(C2=Nc3ccccc3N=C(C(Cl)Cl)C2)cc1 | 3.1 µg/mL (≈ 9.77 µM)
106 | COc1ccc(CNc2nc(C)cc(C)c2C#N)cc1 | 0.6 µg/mL (≈ 2.24 µM)
107 | Cc1ccc2oc(C(=O)NCCC3CCCCO3)c(C)c2c1 (configuration not stated) | 43.1 µg/mL (≈ 143 µM)
108 | O=C(O)c1cccc(NC(=S)NC(=O)c2cncc(Br)c2)c1 | > 57 µg/mL
109 | CCCCCCCN=C(C)c1ccccc1O | 13.9 µg/mL (≈ 59.6 µM)
110 | COc1cccc(NC(=O)CN2C(=O)NC(C)(CC(C)C)C2=O)c1 (configuration not stated) | > 50 µg/mL
111 | COc1ccc2c(c1)C(=O)C(=O)N2CC1COc2ccccc2O1 (configuration not stated) | 1.7 µg/mL (≈ 5.23 µM)
112 | CC(C)Nc1c([N+](=O)[O-])c(=O)oc2ccccc12 | 26.4 µg/mL (≈ 106 µM)
113 | CCOC(=O)C1CCN(CC(=O)c2ccc(O)c(C)c2O)CC1 | 46.3 µg/mL (≈ 144 µM)
114 | COc1ccc(OC)c2nc(-c3ccc4c(c3)OCO4)ccc12 | < 0.7 µg/mL
115 | Cc1ccc(S(C)(=O)=NC(=O)c2cc(C)on2)cc1 (configuration not stated) | 41.5 µg/mL (≈ 149 µM)
116 | CCCn1c(C(=O)c2ccc(OC)cc2)nc2ccccc21 | 1.7 µg/mL (≈ 5.78 µM)
117 | O=C1CSC(=S)N1c1ccc(Cl)c(Cl)c1 | < 0.6 µg/mL
118 | CC(=O)N1CCN(c2ncnc3ccccc23)CC1 | > 38.4 µg/mL
119 | Cc1nnc(SCC(=O)Nc2ccc(OC(F)F)c(Cl)c2)n(N)c1=O | > 58.8 µg/mL
120 | Cc1cccc(Nc2nc(N)nc(-c3oc4ccccc4c3C)n2)c1 | < 0.1 µg/mL
121 | CCOC(=O)CC1COc2ccccc2N1C(=O)c1ccc(F)cc1 (configuration not stated) | 47 µg/mL (≈ 137 µM)
122 | O=C1CN(C(=O)CSc2nncs2)c2ccccc2N1 | > 46 µg/mL
